Entries after “also recorded” stand apart in the source; their conditions may differ.
What was measured:
murine NSCs [1] = assay: Immunofluorescence of differentiated NSC progeny on SAP scaffolds, murine; assay type: cell-based
Procedure: (§1) In vitro tests were performed as previously described (8), in order to assess whether the biomaterials (assembled hydrogels) obtained with the SAPs of the present invention influenced NSCs adhesion, survival and/or differentiation. SAPeptides (30 μl for each well at a concentration of 10 mg/ml) were assembled into 96 multiwells two hours before cell. Cells (at a concentration of 2×10^4 cells/cm^2) were seeded on the top-surface of each assembled scaffold. Initially, cells were cultured with basal medium supplemented with βFGF (10 ng/ml), added to […]. At 3 days in vitro (DIV), βFGF medium was replaced with Leukemia Inhibitory Factor (LIF, Chemicon) (20 ng/ml) and Brain Derived Neurotrophic Factor (BDNF, Peprotech) (20 ng/ml). Fresh medium was added every three days. For both viability and differentiation assays positive and negative controls consisted of Cultrex-BME® substrate (R&D systems) (1:100 dilution in basal medium) and untreated bottom well surfaces respectively. Cell viability was quantified via CellTiter 96® Aqueous Proliferation Assay (Promega) at 7 DIV as recommended in the Promega protocol. After calibrating the linear response between the cell number and absorbance values, proliferated cell populations were quantified (n=5) by using a Vmax microplate reader (Molecular Devices) at 490 nm wavelength. Values, reported as means±standard error of the mean, were blanked to their respective controls consisting of same substrates and cell culture media without cells.
(§2) Immunofluorescence tests were performed for assaying the phenotypes of the differentiated human and murine NSC progenies. In the case of KLP and Ac-KLP just murine NSC have been used. Ac-KLP and KLP scaffolds were prepared at different concentrations in order to display three different stiffness values (viz. 100, 500 and 1000 Pa). This was done to assess the influence of scaffold concentration (and consequently its stiffness) over NSC differentiation. All the other peptides were tested at 1% v/w concentration instead. The following antibodies were used: rabbit polyclonal against GFAP (1:500, DakoCytomation) for astrocytes, mouse monoclonal against βIII-Tubulin (1:500, Covance) for neurons, mouse monoclonal against GalC (1:200, Chemicon) and O4 (1:200, Chemicon) for oligodendrocyes. Secondary Abs were Goat anti Mouse Alexa 488 (1:1000, Molecular Probes), Goat anti Mouse Cy3 (1:1000, Jackson Immunoresearch), Goat anti Rabbit Cy3 (1:1000, Jackson Immunoresearch). Cell nuclei were counterstained with DAPI (Molecular Probes). Quantitative analyses were performed by counting 100-300 cells for each of 9 randomly chosen fields over a total of 3 independent experiments. Phase contrast and fluorescence images of the adhering cells were acquired via Zeiss microscopes Axioplan 2 and ApoTome System at one week after seeding.

[2] = Rheology of SAPeptide solutions and self-assembled scaffolds; assay type: physicochemical; conditions: 1% w/v, 2% w/v and 3% w/v
Procedure: Rheological properties of the self-assembling peptides of the invention were determined using a controlled stress TA Instruments AR-2000ex rheometer (TA Instruments). A cone-and-plate geometry (acrylic cone diameter, 20 mm; angle, 1°; truncation gap 34 μm) was used. Preliminary strain sweeps were performed for each sample to define the linear viscoelastic region, thus ensuring that moduli were independent of strain. Time sweeps, after addition of PBS (1×) were recorded at 25 C (angular frequency ω=1 Hz) and continued till G′ plateaued. Frequency sweeps, both for peptide water solutions and for self-assembled scaffolds, were performed at 25 C with the instrument in oscillatory mode at controlled strain of 1%. Final strain sweeps was performed at 1 Hz oscillatory frequency and at 25 C: onset point of failure was calculated by linear interpolation and subsequent determination of the intersection of the G′ modes within the linear region and at material failure respectively.

murine NSCs [3] = assay: Imaging and cell proliferation assay (CellTiter 96 MTS) on assembled hydrogels, murine NSCs; assay type: cell-based; conditions: 7 DIV
Procedure: as §1

human NSCs [4] = assay: Imaging and cell proliferation assay (CellTiter 96 MTS) on assembled hydrogels, human NSCs; assay type: cell-based; conditions: 7 DIV
Procedure: as §1

human NSCs [5] = assay: Immunofluorescence of differentiated NSC progeny on SAP scaffolds, human; assay type: cell-based; conditions: 1% scaffold, compared to Cultrex positive control
Procedure: as §1
as §2, with “Cell nuclei were counterstained with DAPI (Molecular Probes).” left out

murine NSC = assay: NSC differentiation on exposure to soluble heptapeptides (immunofluorescence); assay type: cell-based; conditions: 12 DIV, Cultrex and Laminin coated wells, peptide 0.1 mg/ml in media, vs untreated NSCs, p<0.05
Procedure: In vitro tests were performed as previously described (8), in order to assess whether the heptapeptides obtained of the present invention influence NSCs differentiation.
Murine cells (at a concentration of 2×10^4 cells/cm^2) were seeded in each well (96 multi-well plate) previously coated with Cultrex-BME® substrate (R&D systems) (1:100 dilution in basal medium, overnight incubation) or with Laminin (Roche) (1:5 dilution in PBS 1×, pH 7.4, overnight incubation).
Initially, cells were cultured with basal medium supplemented with βFGF (10 ng/ml), added to enhance neuronal progeny differentiation. At 3 days in vitro (DIV), βFGF medium was replaced with Leukemia Inhibitory Factor (LIF, Chemicon) (20 ng/ml) and Brain Derived Neurotrophic Factor (BDNF, Peprotech) (20 ng/ml). Fresh medium was added every three days. The chosen peptides were dissolved in all cell culture media (but not in the coatings) at a concentration of 0.1 mg/ml.
Immunofluorescence tests were performed for assaying the phenotypes of the differentiated murine NSC progenies. The following antibodies were used: rabbit polyclonal against GFAP (1:500, DakoCytomation) for astrocytes and mouse monoclonal against βIII-Tubulin (1:500, Covance) for neurons. Secondary Abs were Goat anti Mouse Alexa 488 (1:1000, Molecular Probes), Goat anti Mouse Cy3 (1:1000, Jackson Immunoresearch), Cell nuclei were counterstained with DAPI (Molecular Probes). Quantitative analyses were performed by counting 100-300 cells for each of 9 randomly chosen fields over a total of 3 independent experiments.
Values, reported as means±standard error of the mean (FIG. 1A).

[6] = 1% scaffold, compared to Cultrex positive control

For “Ac-KLPGWSGGGGLDLKLDLKLDLK-CONH2 (Ac-KLPGWSGGGGLDLKLDLKLDLK-NH2)”, the “differentiated neurons (βIIITubulin positive cells) in correspondence of stiffness reductions” value (murine NSCs [1]; scaffold stiffness 100, 500 and 1000 Pa) was “significant increments” and the “G′ and G″ values at different concentrations” value [2] was “increased with concentration increments”.
With “NH2-FAQRVPPGGGLDLKLDLKLDLK-CONH2 (H-FAQRVPPGGGLDLKLDLKLDLK-NH2)” the “cell morphology, adhesion and spreading on assembled hydrogels” value (murine NSCs [3]) was “spread and branched cells”, the “cell viability / proliferated cell population (MTS)” value (murine NSCs [3]; scaffolds 10 mg/ml, vs control, P<0.005) was “significantly fostered cell viability; also recorded: cell population was bigger; also recorded: significantly favored” and the “number of neurons (βIII-Tubulin) obtained” value (murine NSCs [1]; [6]) was “significantly higher”. The “number of oligodendrocytes (GalC/O4) obtained” value (murine NSCs [1]; [6]) was “significantly higher”, the “cell morphology, adhesion and spreading on assembled hydrogels” value (human NSCs [4]) was “spread and branched cells” and the “cell viability / proliferated cell population (MTS)” value (human NSCs [4]; scaffolds 10 mg/ml, vs control, P<0.03) was “significantly fostered cell viability; also recorded: cell population was bigger; also recorded: significantly favored”. For the same substance, the “number of neurons (βIII-Tubulin) obtained” value (human NSCs [5]) was “significantly higher” and the “number of oligodendrocytes (GalC/O4) obtained” value (human NSCs [5]) was “significantly higher”.
With “NH2-HAIYPRH-CONH2 (H-HAIYPRH-NH2) [#HAI]” the “percentage of differentiated neurons (Beta III Tubulin staining)” value (shortened to “percentage of differentiated neurons”) (murine NSC) was “significant increase”.
For “NH2-GETRAPL-CONH2 (H-GETRAPL-NH2) [#GET]”, the “percentage of differentiated neurons” value (murine NSC) was “significant increase”.
With “NH2-KLPGWSG-CONH2 (H-KLPGWSG-NH2) [#KLP]” the “percentage of differentiated neurons” value (murine NSC) was “significant increase; also recorded: Highest increase”.
